According to BindingDB's records for doi:10.1016/s0960-894x(03)00389-5 (National Institute On Drug Abuse-Intramural Research Program, 2003):

What was measured:
[1] = Agonistic activity of quinpirole stimulation of mitogenesis in human dopamine D3 transfected CHO cells
[2] = Agonistic activity of quinpirole stimulation of mitogenesis in human Dopamine receptor D3 transfected CHO cells

Compound	EC50 [1] [µM]	EC50 [2] [µM]
O=C(NC/C=C\CN1CCN(c2cccc(Cl)c2Cl)CC1)c1ccccc1 [N-{(Z)-4-[4-(2,3-Dichloro-phenyl)-piperazin-1-yl]-but-2-enyl}-benzamide]	> 10	
O=C(NC/C=C/CN1CCN(c2cccc(Cl)c2Cl)CC1)c1ccccc1 [N-{(E)-4-[4-(2,3-Dichloro-phenyl)-piperazin-1-yl]-but-2-enyl}-benzamide]		> 10
